Experimental findings from patent US8426345B2, “Method of drug design” (Alchemia Limited, priority 2005, dated 2013) are described below.

For this test, the target named is T1, Human SST5 somatostatin receptor (Homo sapiens, UniProt P35346).
T1 construct: expressed in transfected cells; host or cells: HEK-293 EBNA cells (membranes)
Nature of the test: Filter plate radio-ligand binding assay for SST5 receptor ([125I]SST-14 displacement). The following applies: for % SST5 radio-ligand binding displaced at conc 0.25: conc 0.25 μM; for % SST5 radio-ligand binding displaced at conc 1.0: conc 1.0 μM; for % SST5 radio-ligand binding displaced at conc 0.5: conc 0.5 μM; for % SST5 radio-ligand binding displaced at conc 10: conc 10 μM.

Setting [1] is: compound conc 50 μM, 2P library.
The mark [2] stands for this setting: compound conc 250 μM, 2P library.
Setting [3] is: compound conc 500 μM, 2P library.

T1 sequence (P35346 whole entry): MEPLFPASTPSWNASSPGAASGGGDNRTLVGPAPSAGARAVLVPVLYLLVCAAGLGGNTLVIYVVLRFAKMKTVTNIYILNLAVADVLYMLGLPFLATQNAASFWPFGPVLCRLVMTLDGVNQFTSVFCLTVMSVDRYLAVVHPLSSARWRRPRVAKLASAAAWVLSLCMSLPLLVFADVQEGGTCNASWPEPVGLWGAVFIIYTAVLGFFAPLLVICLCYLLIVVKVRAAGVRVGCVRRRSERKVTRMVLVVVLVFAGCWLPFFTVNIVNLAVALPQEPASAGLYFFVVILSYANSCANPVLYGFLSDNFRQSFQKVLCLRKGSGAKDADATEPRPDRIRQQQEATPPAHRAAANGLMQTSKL

For the compound `CO[C@@H]1[C@H](O)[C@@H](COCc2ccc(Cl)cc2)O[C@@H](SC)[C@@H]1NC(=O)CCCN` [Compound 41], under setting [1], the “% SST5 radio-ligand binding displaced at conc 50” value is recorded as “− (% SST5 radio-ligand binding displaced at cone (μM) −<40%)”. The “% SST5 radio-ligand binding displaced at conc 250” value under setting [2] is listed as “− (% SST5 radio-ligand binding displaced at cone (μM) −<40%)”. Besides, under setting [3], the “% SST5 radio-ligand binding displaced at conc 500” value was “− (% SST5 radio-ligand binding displaced at cone (μM) −<40%)”.
`CO[C@@H]1[C@H](O)[C@@H](COCc2ccc3ccccc3c2)O[C@@H](SC)[C@@H]1NC(=O)CCCN` [Compound 42]: under setting [1], the “% SST5 radio-ligand binding displaced at conc 50” value is “− (% SST5 radio-ligand binding displaced at cone (μM) −<40%)”. Further, the “% SST5 radio-ligand binding displaced at conc 250” value under setting [2] is on record as “− (% SST5 radio-ligand binding displaced at cone (μM) −<40%)”. Under setting [3], the “% SST5 radio-ligand binding displaced at conc 500” value is “+ (% SST5 radio-ligand binding displaced at cone (μM) 60>+>40%)”.
Take `COC[C@H]1O[C@@H](SC)[C@H](NC(=O)CCCN)[C@H](OCc2ccc(Cl)cc2)[C@@H]1O` [Compound 43]: under setting [1], the “% SST5 radio-ligand binding displaced at conc 50” value was “− (% SST5 radio-ligand binding displaced at cone (μM) −<40%)”. For the same compound, the “% SST5 radio-ligand binding displaced at conc 250” value under setting [2] is listed as “− (% SST5 radio-ligand binding displaced at cone (μM) −<40%)”. The “% SST5 radio-ligand binding displaced at conc 500” value under setting [3] is recorded as “− (% SST5 radio-ligand binding displaced at cone (μM) −<40%)”.
As for `COC[C@H]1O[C@@H](OCc2ccc(Cl)cc2)[C@H](NC(=O)CCCN)[C@H](OC)[C@@H]1O` [Compound 44], under setting [1], the “% SST5 radio-ligand binding displaced at conc 50” value is given as “− (% SST5 radio-ligand binding displaced at cone (μM) −<40%)”. Moreover, under setting [2], the “% SST5 radio-ligand binding displaced at conc 250” value is recorded as “− (% SST5 radio-ligand binding displaced at cone (μM) −<40%)”. Moreover, under setting [3], the “% SST5 radio-ligand binding displaced at conc 500” value is “++ (% SST5 radio-ligand binding displaced at conc (μM) >60%)”.
In the case of `COC[C@H]1O[C@@H](OCc2ccc3ccccc3c2)[C@H](NC(=O)CCCN)[C@H](OC)[C@@H]1O` [Compound 45], under setting [1], the “% SST5 radio-ligand binding displaced at conc 50” value is “− (% SST5 radio-ligand binding displaced at cone (μM) −<40%)”. The “% SST5 radio-ligand binding displaced at conc 250” value under setting [2] is on record as “+ (% SST5 radio-ligand binding displaced at cone (μM) 60>+>40%)”. Besides, the “% SST5 radio-ligand binding displaced at conc 500” value under setting [3] is given as “++ (% SST5 radio-ligand binding displaced at conc (μM) >60%)”.
Consider `COC[C@H]1O[C@@H](SC)[C@H](NC(=O)CCN)[C@H](OCc2ccc3ccccc3c2)[C@@H]1O` [Compound 57], for which the “% SST5 radio-ligand binding displaced at conc 50” value under setting [1] is “− (% SST5 radio-ligand binding displaced at cone (μM) −<40%)”. The “% SST5 radio-ligand binding displaced at conc 250” value under setting [2] is reported as “− (% SST5 radio-ligand binding displaced at cone (μM) −<40%)”. In addition, the “% SST5 radio-ligand binding displaced at conc 500” value under setting [3] was “− (% SST5 radio-ligand binding displaced at cone (μM) −<40%)”.
With `COC[C@H]1O[C@@H](SC)[C@H](NC(=O)CCCN)[C@H](OCc2ccc3ccccc3c2)[C@@H]1O` [Compound 58], under setting [1], the “% SST5 radio-ligand binding displaced at conc 50” value is “− (% SST5 radio-ligand binding displaced at cone (μM) −<40%)”. In addition, under setting [2], the “% SST5 radio-ligand binding displaced at conc 250” value was “− (% SST5 radio-ligand binding displaced at cone (μM) −<40%)”. Moreover, under setting [3], the “% SST5 radio-ligand binding displaced at conc 500” value is listed as “− (% SST5 radio-ligand binding displaced at cone (μM) −<40%)”.
For the compound `COC[C@H]1O[C@H](OCc2ccc3ccccc3c2)[C@H](NC(=O)CCN)[C@H](OC)[C@@H]1O` [Compound 59], the “% SST5 radio-ligand binding displaced at conc 50” value under setting [1] is reported as “+ (% SST5 radio-ligand binding displaced at cone (μM) 60>+>40%)”. For the same compound, the “% SST5 radio-ligand binding displaced at conc 250” value under setting [2] is listed as “++ (% SST5 radio-ligand binding displaced at conc (μM) >60%)”. Under setting [3], the “% SST5 radio-ligand binding displaced at conc 500” value is “++ (% SST5 radio-ligand binding displaced at conc (μM) >60%)”.
As to `COC[C@H]1O[C@H](OCc2ccc3ccccc3c2)[C@H](NC(=O)CCN)[C@@H](OC)[C@@H]1O` [Compound 60], the “% SST5 radio-ligand binding displaced at conc 50” value (conc 50 μM, 3P library) is “− (% SST5 radio-ligand binding displaced at cone (μM) −<40%)”. Further, the “% SST5 radio-ligand binding displaced at conc 250” value (conc 250 μM, 3P library) is listed as “+ (% SST5 radio-ligand binding displaced at cone (μM) 60>+>40%)”. In addition, for the setting “conc 500 μM, 3P library”, the “% SST5 radio-ligand binding displaced at conc 500” value is “++ (% SST5 radio-ligand binding displaced at conc (μM) >60%)”.
For `COC[C@H]1O[C@@H](OCc2ccc3ccccc3c2)[C@H](NC(=O)CCN)[C@@H](OC)[C@@H]1O` [Compound 61], in that order: “− (% SST5 radio-ligand binding displaced at cone (μM) −<40%)”, “+ (% SST5 radio-ligand binding displaced at cone (μM) 60>+>40%)” and “++ (% SST5 radio-ligand binding displaced at conc (μM) >60%)”.
For `COC[C@H]1O[C@@H](OCc2ccc3ccccc3c2)[C@H](NC(=O)CCN)[C@H](OC)[C@@H]1O` [Compound 62], in that order: “− (% SST5 radio-ligand binding displaced at cone (μM) −<40%)”, “++ (% SST5 radio-ligand binding displaced at conc (μM) >60%)” and “++ (% SST5 radio-ligand binding displaced at conc (μM) >60%)”.
`COC[C@H]1O[C@H](OCc2ccc3ccccc3c2)[C@H](NC(=O)CCN)[C@H](OC)[C@@H]1O` [Compound 63]: for the setting “conc 50 μM, 3P library”, the “% SST5 radio-ligand binding displaced at conc 50” value is reported as “+ (% SST5 radio-ligand binding displaced at cone (μM) 60>+>40%)”. Also, for the setting “conc 250 μM, 3P library”, the “% SST5 radio-ligand binding displaced at conc 250” value is listed as “++ (% SST5 radio-ligand binding displaced at conc (μM) >60%)”. Also, the “% SST5 radio-ligand binding displaced at conc 500” value (conc 500 μM, 3P library) is listed as “++ (% SST5 radio-ligand binding displaced at conc (μM) >60%)”.
On to `NCCC(=O)NC1C(OCc2ccc3ccccc3c2)OC(COCc2ccc3ccccc3c2)C(O)C1OCc1ccc2ccccc2c1` (centres unmarked) [Compound 79], for which, where the note is “3P library”, the “% SST5 radio-ligand binding displaced at conc 0.25” value was “− (% SST5 radio-ligand binding displaced at cone (μM) −<40%)” and the “% SST5 radio-ligand binding displaced at conc 1.0” value is on record as “++ (% SST5 radio-ligand binding displaced at conc (μM) >60%)”.
`NCCC(=O)NC1C(OCc2ccc3ccccc3c2)OC(COCc2ccc3ccccc3c2)C(O)C1OCc1ccc2ccccc2c1` (centres unmarked) [Compound 80]: under “3P library”, the “% SST5 radio-ligand binding displaced at conc 0.25” value is reported as “− (% SST5 radio-ligand binding displaced at cone (μM) −<40%)” and the “% SST5 radio-ligand binding displaced at conc 1.0” value is recorded as “++ (% SST5 radio-ligand binding displaced at conc (μM) >60%)”.
With `NCCC(=O)NC1C(OCc2ccc3ccccc3c2)OC(COCc2ccccc2)C(O)C1OCc1ccc2ccccc2c1` (centres unmarked) [Compound 81], for the setting “3P library”, the “% SST5 radio-ligand binding displaced at conc 0.25” value was “− (% SST5 radio-ligand binding displaced at cone (μM) −<40%)” and the “% SST5 radio-ligand binding displaced at conc 1.0” value is “++ (% SST5 radio-ligand binding displaced at conc (μM) >60%)”.
For `NCCC(=O)NC1C(OCc2ccc3ccccc3c2)OC(COCc2ccccc2)C(O)C1OCc1ccc2ccccc2c1` (centres unmarked) [Compound 82], in that order: “+ (% SST5 radio-ligand binding displaced at cone (μM) 60>+>40%)” and “++ (% SST5 radio-ligand binding displaced at conc (μM) >60%)”.
`NCCC(=O)NC1C(OCc2ccc3ccccc3c2)OC(COCc2ccc(Cl)cc2)C(O)C1OCc1ccc2ccccc2c1` (centres unmarked) [Compound 83]: where the note is “3P library”, the “% SST5 radio-ligand binding displaced at conc 0.25” value is “− (% SST5 radio-ligand binding displaced at cone (μM) −<40%)” and the “% SST5 radio-ligand binding displaced at conc 1.0” value was “++ (% SST5 radio-ligand binding displaced at conc (μM) >60%)”.
As to `NCCC(=O)NC1C(OCc2ccc3ccccc3c2)OC(COCc2ccc(Cl)cc2)C(O)C1OCc1ccc2ccccc2c1` (centres unmarked) [Compound 84], where the note is “3P library”, the “% SST5 radio-ligand binding displaced at conc 0.25” value is on record as “− (% SST5 radio-ligand binding displaced at cone (μM) −<40%)” and the “% SST5 radio-ligand binding displaced at conc 1.0” value is recorded as “++ (% SST5 radio-ligand binding displaced at conc (μM) >60%)”.
With `COC[C@H]1O[C@@H](OCc2ccc3ccccc3c2)[C@H](NC(=O)CCN)[C@H](OCc2ccc3ccccc3c2)[C@@H]1O` [Compound 85], under “3P library”, the “% SST5 radio-ligand binding displaced at conc 0.5” value is listed as “++ (% SST5 radio-ligand binding displaced at conc (μM) >60%)” and the “% SST5 radio-ligand binding displaced at conc 10” value was “++ (% SST5 radio-ligand binding displaced at conc (μM) >60%)”.
With `COC[C@H]1O[C@H](OCc2ccc3ccccc3c2)[C@H](NC(=O)CCN)[C@H](OCc2ccc3ccccc3c2)[C@@H]1O` [Compound 86], under “3P library”, the “% SST5 radio-ligand binding displaced at conc 0.5” value was “++ (% SST5 radio-ligand binding displaced at conc (μM) >60%)” and the “% SST5 radio-ligand binding displaced at conc 10” value is “++ (% SST5 radio-ligand binding displaced at conc (μM) >60%)”.
Turning to `COC[C@H]1O[C@H](OCc2ccc3ccccc3c2)[C@H](NC(=O)CCN)[C@@H](OCc2ccc3ccccc3c2)[C@@H]1O` [Compound 98], where the note is “3P library”, the “% SST5 radio-ligand binding displaced at conc 0.25” value is listed as “+ (% SST5 radio-ligand binding displaced at cone (μM) 60>+>40%)” and the “% SST5 radio-ligand binding displaced at conc 1.0” value is “++ (% SST5 radio-ligand binding displaced at conc (μM) >60%)”.
Take `COC[C@H]1O[C@H](OCc2ccc3ccccc3c2)[C@H](NC(=O)C(C)CN)[C@@H](OCc2ccc3ccccc3c2)[C@@H]1O` (some centres unmarked) [Compound 99]: for the setting “3P library”, the “% SST5 radio-ligand binding displaced at conc 0.25” value is given as “− (% SST5 radio-ligand binding displaced at cone (μM) −<40%)” and the “% SST5 radio-ligand binding displaced at conc 1.0” value was “+ (% SST5 radio-ligand binding displaced at cone (μM) 60>+>40%)”.
In the same order, the values of `COC[C@H]1O[C@H](OCc2ccc3ccccc3c2)[C@H](NC(=O)CC(C)N)[C@@H](OCc2ccc3ccccc3c2)[C@@H]1O` (some centres unmarked) [Compound 100] are “+ (% SST5 radio-ligand binding displaced at cone (μM) 60>+>40%)” and “++ (% SST5 radio-ligand binding displaced at conc (μM) >60%)”.
For `COC[C@H]1O[C@H](OCc2ccc3ccccc3c2)[C@H](NC(=O)C2CNC2)[C@@H](OCc2ccc3ccccc3c2)[C@@H]1O` [Compound 101], in that order: “− (% SST5 radio-ligand binding displaced at cone (μM) −<40%)” and “+ (% SST5 radio-ligand binding displaced at cone (μM) 60>+>40%)”.
As for `COC[C@H]1O[C@H](OCc2ccc3ccccc3c2)[C@H](NC(=O)CCN2CCCCC2)[C@@H](OCc2ccc3ccccc3c2)[C@@H]1O` [Compound 102], where the note is “3P library”, the “% SST5 radio-ligand binding displaced at conc 0.25” value was “− (% SST5 radio-ligand binding displaced at cone (μM) −<40%)” and the “% SST5 radio-ligand binding displaced at conc 1.0” value is recorded as “− (% SST5 radio-ligand binding displaced at cone (μM) −<40%)”.
